# US20220056019A1, “FARNESOID X RECEPTOR AGONISTS AND USES THEREOF” (Metacrine, Inc., priority 2018, published 2022)
# Molecular target: T1, hFXR (Homo sapiens, UniProt Q96RI1)
# T1 construct: expressed in transfected cells; host or cells: CV-1 cells
# T1 sequence (Q96RI1 1-486): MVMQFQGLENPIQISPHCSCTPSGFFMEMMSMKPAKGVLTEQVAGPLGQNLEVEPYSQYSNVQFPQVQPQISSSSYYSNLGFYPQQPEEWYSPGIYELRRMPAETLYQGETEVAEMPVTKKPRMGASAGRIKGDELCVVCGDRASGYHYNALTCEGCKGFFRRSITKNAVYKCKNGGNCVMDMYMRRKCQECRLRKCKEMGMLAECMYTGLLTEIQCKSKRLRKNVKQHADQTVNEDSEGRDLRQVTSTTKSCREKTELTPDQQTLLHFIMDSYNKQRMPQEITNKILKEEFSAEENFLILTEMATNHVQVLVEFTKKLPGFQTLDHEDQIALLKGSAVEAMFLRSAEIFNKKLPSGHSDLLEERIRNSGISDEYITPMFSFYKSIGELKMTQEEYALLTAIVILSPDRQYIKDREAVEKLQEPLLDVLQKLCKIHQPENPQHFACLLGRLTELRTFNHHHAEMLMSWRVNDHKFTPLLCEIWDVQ
# T1 sequence (P19793 1-462 partner): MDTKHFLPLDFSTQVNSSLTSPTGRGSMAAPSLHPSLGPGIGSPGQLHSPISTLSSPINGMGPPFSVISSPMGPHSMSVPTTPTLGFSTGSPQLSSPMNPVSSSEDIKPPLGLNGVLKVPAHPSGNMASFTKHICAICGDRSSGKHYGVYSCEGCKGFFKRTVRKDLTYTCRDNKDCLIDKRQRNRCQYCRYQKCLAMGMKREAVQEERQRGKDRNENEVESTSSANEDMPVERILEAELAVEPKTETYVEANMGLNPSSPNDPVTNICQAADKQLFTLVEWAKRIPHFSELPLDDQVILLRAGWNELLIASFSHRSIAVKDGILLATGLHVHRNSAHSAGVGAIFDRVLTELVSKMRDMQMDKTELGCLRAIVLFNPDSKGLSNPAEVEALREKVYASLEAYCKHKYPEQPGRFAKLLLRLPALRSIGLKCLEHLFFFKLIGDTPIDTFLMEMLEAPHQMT
# Assay: In Vitro FXR Assay (TK): TK-ECRE-luc reporter in transfected CV-1 cells
# Type: cell-based
# Settings: 18 hrs incubation, luminescence
# Method in brief: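 Reporter gene assay: CV-1 cells co-expressing hFXR, hRXR, TK-ECRE-luc and pCMX-YFP after overnight transfection in charcoal-stripped serum. Treatment with serially diluted compounds lasted 18 hrs at 37 °C, followed by cell lysis and a luminescence measurement.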
row,EC50,SMILES
1,≤ 50 nM,"COc1ccc(C23CCC(CN(c4cc(-c5cnn(C(C)C)c5)ncn4)C(=O)[C@H]4CC[C@H](OC(=O)N5CC(CO)C5)CC4)(CC2)CC3)cc1C [Compound 23.20, 4-((6-(1-Isopropyl-1H-pyrazol-4-yl)pyrimidin-4-yl)((4-(4-methoxy-3-methylphenyl)bi-cyclo[2.2.2]octan-1-yl)methyl)carbamoyl)(trans-cyclohexyl) 3-(hydroxymethyl)azetidine-1-carboxylate]"
2,≤ 50 nM,"COc1ccc(C23CCC(CN(c4cc(-c5coc(C6CC6)n5)ccn4)C(=O)[C@H]4CC[C@H](NC(C)=O)CC4)(CC2)CC3)cc1C [Compound 9.09, (trans)-4-Acetamido-N-(4-(2-cyclopropyloxazol-4-yl)pyridin-2-yl)-N-((4-(4-methoxy-3-methylphenyl)bicyclo[2.2.2]octan-1-yl)methyl)cyclohexanecarboxamide]"
3,≤ 50 nM,"CCOC(=O)N[C@H]1CC[C@H](C(=O)N(CC23CCC(c4ccc(OC)c(C)c4)(CC2)CC3)c2cc(-c3cnn(C(C)C)c3)ccn2)CC1 [Compound 8.01, (trans)-Ethyl (4-((4-(1-isopropyl-1H-pyrazol-4-yl)pyridin-2-yl)((4-(4-methoxy-3-methylphenyl)bicyclo[2.2.2]octan-1-yl)methyl)carbamoyl)cyclohexyl)car-bamate]"
4,≤ 50 nM,"COc1ccc(C23CCC(CN(c4cc(-c5cnn(C(C)C)c5)ccn4)C(=O)[C@H]4CC[C@H](NC(=O)OCCO)CC4)(CC2)CC3)cc1C [Compound 7, (trans)-2-Hydroxyethyl (4-((4-(1-isopropyl-1H-pyrazol-4-yl)pyridine-2-yl)((4-(4-methoxy-3-methylphenyl)bicyclo[2.2.2]octan-1-yl)methyl)carbamoyl)cyclohexyl)carbamate]"
5,≤ 50 nM,"COc1ccc(C23CCC(CN(c4ccnc(-c5cnn(C6(C)CCC6)c5)c4)C(=O)[C@H]4CC[C@H](OC(=O)N5CC(O)C5)CC4)(CC2)CC3)cc1C [Compound 25.23, 4-(((4-(4-Methoxy-3-methylphenyl)bicyclo[2.2.2]octan-1-yl)methyl)(2-(1-(1-methylcyclobutyl)-1H-pyrazol-4-yl)pyridin-4-yl)carbamoyl)cyclohexyl trans-3-hydroxyazetidine-1-carboxylate]"
6,≤ 50 nM,"CCOC(=O)N[C@H]1CC[C@H](C(=O)N(C[C@H]2CC[C@H](c3ccc(OC)c(C)c3)CC2)c2cccc(-c3cnn(C(C)C)c3)c2)CC1 [Compound 6.01, Ethyl (trans-4-((3-(1-isopropyl-1H-pyrazol-4-yl)phenyl)((trans-4-(4-methoxy-3-methylphenyl)cyclohexyl)meth-yl)carbamoyl)cyclohexyl)carbamate]"
7,≤ 50 nM,"COc1ccc(C23CCC(CN(c4ccc(F)c(-c5cnn(C(C)C)c5)c4)C(=O)[C@H]4CC[C@H](OC(=O)N5CC(CS(C)(=O)=O)C5)CC4)(CC2)CC3)cc1C [Compound 25.10, 4-((4-Fluoro-3-(1-isopropyl-1H-pyrazol-4-yl)phenyl)((4-(4-methoxy-3-methylphenyl)bicyclo[2.2.2]octan-1-yl)methyl)carbamoyl)cyclohexyl trans-3-((methylsulfonyl)methyl)azetidine-1-carboxylate]"
8,≤ 50 nM,"COc1ccc(C23CCC(CN(c4cc(-c5cnc(C(C)C)s5)ccn4)C(=O)[C@H]4CC[C@H](NC(=O)CO)CC4)(CC2)CC3)cc1C [Compound 9, (trans)-4-(2-Hydroxyacetamido)-N-(4-(2-isopropylthiazol-5-yl)pyridin-2-yl)-N-((4-(4-methoxy-3-methylphenyl)bicyclo[2.2.2]octan-1-yl)methyl)cyclohexanecarboxamide]"
9,≤ 50 nM,"COc1ccc(C23CCC(CN(c4cc(-c5cnn(C(C)C)c5)ncn4)C(=O)[C@H]4CC[C@H](OC(=O)N5CC(CS(C)(=O)=O)C5)CC4)(CC2)CC3)cc1C [Compound 23.21, 4-((6-(1-Isopropyl-1H-pyrazol-4-yl)pyrimidin-4-yl)((4-(4-methoxy-3-methylphenyl)bicyclo[2.2.2]octan-1-yl)methyl)carbamoyl)(trans-cyclohexyl) 3-((methylsulfonyl)meth-yl)azetidine-1-carboxylate]"

# Further lines, the compound ahead of its results:
row,SMILES,EC50
1,"COc1ccc([C@H]2CC[C@H](CN(c3cc(-c4cnn(C(C)C)c4)ccn3)C(=O)[C@H]3CC[C@H](OC(=O)NCCCO)CC3)CC2)cc1C [Compound 2.19, trans-4-((4-(1-Isopropyl-1H-pyrazol-4-yl)pyridin-2-yl) ((trans-4-(4-methoxy-3-methylphenyl)cyclohexyl)methyl)carbamoyl) cyclohexyl(3-hydroxypropyl)carbamate]",≤ 50 nM
2,"COc1ccc([C@H]2CC[C@H](CN(c3cc(-c4cnn(C(C)C)c4)ccn3)C(=O)[C@H]3CC[C@H](OC(=O)NCC(C)(C)CO)CC3)CC2)nc1C [Compound 1.02, trans-4-((4-(1-Isopropyl-1H-pyrazol-4-yl)pyridin-2-yl) ((trans-4-(5-methoxy-6-methylpyridin-2-yl)cyclohexyl)methyl)carbamoyl) cyclohexyl (3-hydroxy-2,2-dimethylpropyl)carbamate]",≤ 50 nM
3,"COc1ccc(C23CCC(CN(c4cc(-c5cnn(C(C)C)c5)ccn4)C(=O)[C@H]4CC[C@H](OC(=O)NCCO)CC4)(CC2)CC3)cc1C [Compound 4.05, 4-((4-(1-Isopropyl-1H-pyrazol-4-yl)pyridin-2-yl)((4-(4-methoxy-3-methylphenyl)bicyclo [2.2.2]octan-1-yl)methyl)carbamoyl)cyclohexyl (2-hydroxyethyl)trans-carbamate]",≤ 50 nM
4,"COc1ccc(C23CCC(CN(c4cc(-c5cnn(C(C)C)c5)ccn4)C(=O)[C@H]4CC[C@H](OC(=O)N5CC(O)C5)CC4)(CC2)CC3)cc1C [Compound 4, 4-((4-(1-Isopropyl-1H-pyrazol-4-yl)pyridin-2-yl)((4-(4-methoxy-3-methylphenyl)bicyclo[2.2.2]octan-1-yl)methyl)carbamoyl)cyclohexyl 3-hydroxyazetidine-trans-1-carboxylate]",≤ 50 nM
5,"CCc1nc(-c2ccnc(N(C[C@H]3CC[C@H](c4ccc(OC)c(C)c4)CC3)C(=O)[C@H]3CC[C@H](OC(=O)N4CCN(C)CC4)CC3)c2)co1 [Compound 2.48, trans-4-((4-(2-Ethyloxazol-4-yl)pyridin-2-yl)((trans-4-(4-methoxy-3-methylphenyl)cyclohexyl)methyl)carbamoyl)cyclohexyl 4-methylpiperazine-1-carboxylate]",50 to 1000 nM
6,"COc1ccc(C23CCC(CN(c4cc(-c5cnn(C(C)C)c5)ccn4)C(=O)[C@H]4CC[C@H](OC(=O)NC(C)C)CC4)(CC2)CC3)cc1C [Compound 4.04, 4-((4-(1-Isopropyl-1H-pyrazol-4-yl)pyridin-2-yl)((4-(4-methoxy-3-methylphenyl)bicyclo [2.2.2]octan-1-yl)methyl)carbamoyl)cyclohexyl trans-isopropylcarbamate]",≤ 50 nM
7,"COc1ccc(C23CCC(CN(c4cc(-c5cnn(C(C)C)c5)ccn4)C(=O)[C@H]4CC[C@H](OC(=O)N5CC(O)C5)CC4)(CC2)CC3)cc1Cl [Compound 4.16, 4-(((4-(3-Chloro-4-methoxyphenyl)bicyclo [2.2.2]octan-1-yl)methyl) (4-(1-isopropyl-1H-pyrazol-4-yl)pyridin-2-yl)carbamoyl)cyclohexyl hydroxyazetidine-1-carboxylate]",≤ 50 nM
